One may read the IC50 as the midpoint of a concentration-inhibition curve.

Bridge positions count the residues as written; N and C are the ends. Square brackets hold non-standard residues; d marks the D form. Peptide text beside a SMILES is read from it. * marks the point of attachment. Phe(4-COOH) = N[C@@H](Cc1ccc(C(=O)O)cc1)C(=O)O; Bip = N[C@@H](Cc1ccc(-c2ccccc2)cc1)C(=O)O; Phe(3-Me) = Cc1cccc(C[C@H](N)C(=O)O)c1; Cha = N[C@@H](CC1CCCCC1)C(=O)O; Carboxymethyl = O=C(O)C*; Orn = NCCC[C@H](N)C(=O)O; Aun = NCCCCCCCCCCC(=O)O; Dab = NCC[C@H](N)C(=O)O; Dap = NC[C@H](N)C(=O)O; AEEA = NCCOCCOCC(=O)O

In this assay the target is T1, PD-1/PD-L1 interaction (PE-labeled human PD-L1-Ig binding to Jurkat cell line over-expressing human PD-1) (Homo sapiens, UniProt Q15116).
T1 construct: expressed in transfected cells; host or cells: Jurkat
T1 sequence (Q15116 25-288): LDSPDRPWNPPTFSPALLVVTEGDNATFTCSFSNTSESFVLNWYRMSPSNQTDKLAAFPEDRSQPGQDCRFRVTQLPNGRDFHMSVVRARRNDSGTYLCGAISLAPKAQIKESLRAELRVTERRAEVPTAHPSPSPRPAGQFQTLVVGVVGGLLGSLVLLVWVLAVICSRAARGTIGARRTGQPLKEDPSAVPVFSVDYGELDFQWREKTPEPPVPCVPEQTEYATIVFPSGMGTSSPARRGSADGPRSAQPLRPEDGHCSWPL
As to the kind of experiment: Jurkat-PD-1 Cell Binding High-Content Screening Assay (CBA). To be noted: Jurkat cell line over-expressing human PD-1; PE-labeled PD-L1-Ig 20 nM final; read-out: Jurkat hPD1-PDL1 IC50. Type of assay: cell-based. In outline:
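Read-out is high-content imaging of cell-bound phycoerythrin-tagged PD-L1-Ig on fixed, Hoechst-counterstained Jurkat cells that over-express human PD-1. Compound exposure lasts 2 h at 37° C before the labeled ligand (20 nM final) is added for a further hour.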
For the compound `CC(C)C[C@H]1NC(=O)[C@H](CCCN)NC(=O)[C@H](C(C)C)NC(=O)[C@H](Cc2ccc(-c3ccccc3)cc2)NC(=O)[C@H](C(C)C)NC(=O)[C@H](Cc2c[nH]c3ccccc23)NC(=O)[C@H](CC(=O)O)NC(=O)[C@H](Cc2ccc(C(=O)O)cc2)NC(=O)[C@H](Cc2ccc(OCC(=O)O)cc2)NC(=O)CSC[C@@H](C(=O)N[C@@H](CCCCN)C(=O)NCCOCCOCC(=O)NCCCCCCCCCCC(=O)O)NC(=O)[C@H](CCCCN)NC(=O)[C@H](C(C)C)NC(=O)[C@H](CC2CCCCC2)NC(=O)[C@H](CCN)NC1=O` [Compound 2523] ({CH2CO}-Y(Carboxymethyl)[Phe(4-COOH)]DWV[Bip]V[Orn][dL][Dab][Cha]VKCK[AEEA][Aun]-OH; thioether N-14), the IC50 was found to be 7.6 nM.

As for `CC(C)C[C@H]1NC(=O)[C@H](CCCN)NC(=O)[C@H](C(C)C)NC(=O)[C@H](Cc2ccc(-c3ccccc3)cc2)NC(=O)[C@H](C(C)C)NC(=O)[C@H](Cc2c[nH]c3ccccc23)NC(=O)[C@H](CC(=O)O)NC(=O)[C@H](Cc2ccc(OCC(=O)O)cc2)NC(=O)[C@H](CN)NC(=O)CSC[C@@H](C(=O)N[C@@H](CCCCN)C(=O)NCCOCCOCC(=O)NCCCCCCCCCCC(=O)O)NC(=O)[C@H](CCCCN)NC(=O)[C@H](C(C)C)NC(=O)[C@H](CC2CCCCC2)NC(=O)[C@H](CCN)NC1=O` [Compound 2525] ({CH2CO}-[Dap]Y(Carboxymethyl)DWV[Bip]V[Orn][dL][Dab][Cha]VKCK[AEEA][Aun]-OH; thioether N-14), the IC50 was 16.5 nM.

On to `Cc1cccc(C[C@@H]2NC(=O)[C@H](CC(=O)O)NC(=O)[C@H](Cc3ccc(OCC(=O)O)cc3)NC(=O)[C@H](CN)NC(=O)CSC[C@@H](C(=O)N[C@@H](CCCCN)C(=O)NCCOCCOCC(=O)NCCCCCCCCCCC(=O)O)NC(=O)[C@H](CN)NC(=O)[C@H](C(C)C)NC(=O)[C@H](CC3CCCCC3)NC(=O)[C@H](CCN)NC(=O)[C@@H](CC(C)C)NC(=O)[C@H](CCCN)NC(=O)[C@H](C(C)C)NC(=O)[C@H](Cc3ccc(-c4ccccc4)cc3)NC(=O)[C@H](C(C)C)NC2=O)c1` [Compound 2526] ({CH2CO}-[Dap]Y(Carboxymethyl)D[Phe(3-Me)]V[Bip]V[Orn][dL][Dab][Cha]V[Dap]CK[AEEA][Aun]-OH; thioether N-14), for which the half-maximal inhibitory concentration (IC50) came to 7.2 nM. Turning to `Cc1cccc(C[C@@H]2NC(=O)[C@H](CC(=O)O)NC(=O)[C@H](Cc3ccc(OCC(=O)O)cc3)NC(=O)[C@H](CN)NC(=O)CSC[C@@H](C(=O)N[C@@H](CCCCN)C(=O)NCCOCCOCC(=O)NCCCCCCCCCCC(=O)O)NC(=O)[C@H](CCCN)NC(=O)[C@H](C(C)C)NC(=O)[C@H](CC3CCCCC3)NC(=O)[C@H](CCN)NC(=O)[C@@H](CC(C)C)NC(=O)[C@H](CCCN)NC(=O)[C@H](C(C)C)NC(=O)[C@H](Cc3ccc(-c4ccccc4)cc3)NC(=O)[C@H](C(C)C)NC2=O)c1` [Compound 2527] ({CH2CO}-[Dap]Y(Carboxymethyl)D[Phe(3-Me)]V[Bip]V[Orn][dL][Dab][Cha]V[Orn]CK[AEEA][Aun]-OH; thioether N-14), the IC50 worked out at 6.8 nM. The same measure for `Cc1cccc(C[C@@H]2NC(=O)[C@H](CC(=O)O)NC(=O)[C@H](Cc3ccc(OCC(=O)O)cc3)NC(=O)[C@H](CN)NC(=O)CSC[C@@H](C(=O)N[C@@H](CCCCN)C(=O)NCCOCCOCC(=O)NCCCCCCCCCCC(=O)O)NC(=O)[C@H](CCCNC(=N)N)NC(=O)[C@H](C(C)C)NC(=O)[C@H](CC3CCCCC3)NC(=O)[C@H](CCN)NC(=O)[C@@H](CC(C)C)NC(=O)[C@H](CCCN)NC(=O)[C@H](C(C)C)NC(=O)[C@H](Cc3ccc(-c4ccccc4)cc3)NC(=O)[C@H](C(C)C)NC2=O)c1` [Compound 2528] ({CH2CO}-[Dap]Y(Carboxymethyl)D[Phe(3-Me)]V[Bip]V[Orn][dL][Dab][Cha]VRCK[AEEA][Aun]-OH; thioether N-14): 7.8 nM; for `CC(C)C[C@H]1NC(=O)[C@H](CCCN)NC(=O)[C@H](C(C)C)NC(=O)[C@H](Cc2ccc(-c3ccccc3)cc2)NC(=O)[C@H](C(C)C)NC(=O)[C@H](Cc2c[nH]c3ccccc23)NC(=O)[C@H](CC(=O)O)NC(=O)[C@H](Cc2ccc(OCC(=O)O)cc2)NC(=O)[C@H](Cc2ccc(OCC(=O)O)cc2)NC(=O)CSC[C@@H](C(=O)N[C@@H](CCCCN)C(=O)NCCOCCOCC(=O)NCCCCCCCCCCC(=O)O)NC(=O)[C@H](CCCN)NC(=O)[C@H](C(C)C)NC(=O)[C@H](CC2CCCCC2)NC(=O)[C@H](CCN)NC1=O` [Compound 2529] ({CH2CO}-Y(Carboxymethyl)Y(Carboxymethyl)DWV[Bip]V[Orn][dL][Dab][Cha]V[Orn]CK[AEEA][Aun]-OH; thioether N-14): 12.7 nM. The same measure for `CC(C)C[C@H]1NC(=O)[C@H](CCCN)NC(=O)[C@H](C(C)C)NC(=O)[C@H](Cc2ccc(-c3ccccc3)cc2)NC(=O)[C@H](C(C)C)NC(=O)[C@H](Cc2c[nH]c3ccccc23)NC(=O)[C@H](CC(=O)O)NC(=O)[C@H](Cc2ccc(OCC(=O)O)cc2)NC(=O)[C@H](Cc2ccc(OCC(=O)O)cc2)NC(=O)CSC[C@@H](C(=O)N[C@@H](CCCCN)C(=O)NCCOCCOCC(=O)NCCCCCCCCCCC(=O)O)NC(=O)[C@H](CN)NC(=O)[C@H](C(C)C)NC(=O)[C@H](CC2CCCCC2)NC(=O)[C@H](CCN)NC1=O` [Compound 2530] ({CH2CO}-Y(Carboxymethyl)Y(Carboxymethyl)DWV[Bip]V[Orn][dL][Dab][Cha]V[Dap]CK[AEEA][Aun]-OH; thioether N-14): 10.9 nM; for `CC(C)C[C@H]1NC(=O)[C@H](CCCN)NC(=O)[C@H](C(C)C)NC(=O)[C@H](Cc2ccc(-c3ccccc3)cc2)NC(=O)[C@H](C(C)C)NC(=O)[C@H](Cc2c[nH]c3ccccc23)NC(=O)[C@H](CC(=O)O)NC(=O)[C@H](Cc2ccc(C(=O)O)cc2)NC(=O)[C@H](Cc2ccc(OCC(=O)O)cc2)NC(=O)CSC[C@@H](C(=O)N[C@@H](CCCCN)C(=O)NCCCCCCCCCCC(=O)O)NC(=O)[C@H](CCCCN)NC(=O)[C@H](C(C)C)NC(=O)[C@H](CC2CCCCC2)NC(=O)[C@H](CCN)NC1=O` [Compound 2531] ({CH2CO}-Y(Carboxymethyl)[Phe(4-COOH)]DWV[Bip]V[Orn][dL][Dab][Cha]VKCK[Aun]-OH; thioether N-14): 22.2 nM; for `CC(C)C[C@H]1NC(=O)[C@H](CCCN)NC(=O)[C@H](C(C)C)NC(=O)[C@H](Cc2ccc(-c3ccccc3)cc2)NC(=O)[C@H](C(C)C)NC(=O)[C@H](Cc2c[nH]c3ccccc23)NC(=O)[C@H](CC(=O)O)NC(=O)[C@H](Cc2ccc(OCC(=O)O)cc2)NC(=O)[C@H](Cc2ccc(OCC(=O)O)cc2)NC(=O)CSC[C@@H](C(=O)N[C@@H](CCCCN)C(=O)NCCCCCCCCCCC(=O)O)NC(=O)[C@H](CCCNC(=N)N)NC(=O)[C@H](C(C)C)NC(=O)[C@H](CC2CCCCC2)NC(=O)[C@H](CCN)NC1=O` [Compound 2532] ({CH2CO}-Y(Carboxymethyl)Y(Carboxymethyl)DWV[Bip]V[Orn][dL][Dab][Cha]VRCK[Aun]-OH; thioether N-14): 34.6 nM. The same measure for `CC(C)C[C@H]1NC(=O)[C@H](CCCN)NC(=O)[C@H](C(C)C)NC(=O)[C@H](Cc2ccc(-c3ccccc3)cc2)NC(=O)[C@H](C(C)C)NC(=O)[C@H](Cc2c[nH]c3ccccc23)NC(=O)[C@H](CC(=O)O)NC(=O)[C@H](Cc2ccc(OCC(=O)O)cc2)NC(=O)[C@H](CN)NC(=O)CSC[C@@H](C(=O)N[C@@H](CCCCN)C(=O)NCCCCCCCCCCC(=O)O)NC(=O)[C@H](CCCCN)NC(=O)[C@H](C(C)C)NC(=O)[C@H](CC2CCCCC2)NC(=O)[C@H](CCN)NC1=O` [Compound 2533] ({CH2CO}-[Dap]Y(Carboxymethyl)DWV[Bip]V[Orn][dL][Dab][Cha]VKCK[Aun]-OH; thioether N-14): 23.8 nM; for `Cc1cccc(C[C@@H]2NC(=O)[C@H](CC(=O)O)NC(=O)[C@H](Cc3ccc(OCC(=O)O)cc3)NC(=O)[C@H](CN)NC(=O)CSC[C@@H](C(=O)N[C@@H](CCCCN)C(=O)NCCCCCCCCCCC(=O)O)NC(=O)[C@H](CN)NC(=O)[C@H](C(C)C)NC(=O)[C@H](CC3CCCCC3)NC(=O)[C@H](CCN)NC(=O)[C@@H](CC(C)C)NC(=O)[C@H](CCCN)NC(=O)[C@H](C(C)C)NC(=O)[C@H](Cc3ccc(-c4ccccc4)cc3)NC(=O)[C@H](C(C)C)NC2=O)c1` [Compound 2534] ({CH2CO}-[Dap]Y(Carboxymethyl)D[Phe(3-Me)]V[Bip]V[Orn][dL][Dab][Cha]V[Dap]CK[Aun]-OH; thioether N-14): 6.3 nM; for `Cc1cccc(C[C@@H]2NC(=O)[C@H](CC(=O)O)NC(=O)[C@H](Cc3ccc(OCC(=O)O)cc3)NC(=O)[C@H](CN)NC(=O)CSC[C@@H](C(=O)N[C@@H](CCCCN)C(=O)NCCCCCCCCCCC(=O)O)NC(=O)[C@H](CCCN)NC(=O)[C@H](C(C)C)NC(=O)[C@H](CC3CCCCC3)NC(=O)[C@H](CCN)NC(=O)[C@@H](CC(C)C)NC(=O)[C@H](CCCN)NC(=O)[C@H](C(C)C)NC(=O)[C@H](Cc3ccc(-c4ccccc4)cc3)NC(=O)[C@H](C(C)C)NC2=O)c1` [Compound 2535] ({CH2CO}-[Dap]Y(Carboxymethyl)D[Phe(3-Me)]V[Bip]V[Orn][dL][Dab][Cha]V[Orn]CK[Aun]-OH; thioether N-14): 6.4 nM. In the case of `Cc1cccc(C[C@@H]2NC(=O)[C@H](CC(=O)O)NC(=O)[C@H](Cc3ccc(OCC(=O)O)cc3)NC(=O)[C@H](CN)NC(=O)CSC[C@@H](C(=O)N[C@@H](CCCCN)C(=O)NCCCCCCCCCCC(=O)O)NC(=O)[C@H](CCCNC(=N)N)NC(=O)[C@H](C(C)C)NC(=O)[C@H](CC3CCCCC3)NC(=O)[C@H](CCN)NC(=O)[C@@H](CC(C)C)NC(=O)[C@H](CCCN)NC(=O)[C@H](C(C)C)NC(=O)[C@H](Cc3ccc(-c4ccccc4)cc3)NC(=O)[C@H](C(C)C)NC2=O)c1` [Compound 2536] ({CH2CO}-[Dap]Y(Carboxymethyl)D[Phe(3-Me)]V[Bip]V[Orn][dL][Dab][Cha]VRCK[Aun]-OH; thioether N-14), the IC50 turned out to be 9.5 nM.

The record behind these values is patent US20260022142A1, “MACROCYCLIC IMMUNOMODULATORS” (Bristol-Myers Squibb Company, priority 2022, published 2026).
